This is an account of results in PMC5978685, “Design, Synthesis, and Evaluation of Novel Immunomodulatory Small Molecules Targeting the CD40–CD154 Costimulatory Protein-Protein Interaction” (Molecules : A Journal of Synthetic Chemistry and Natural …, 2018).

pIC50: −log10 of the molar value.

Series [1] concerns the target T1, CD40–CD154 (CD40L) (Homo sapiens, UniProt P29965).
T1 construct: purchased Enzo Life Sciences
T1 sequence (P29965 116-261 limits assumed): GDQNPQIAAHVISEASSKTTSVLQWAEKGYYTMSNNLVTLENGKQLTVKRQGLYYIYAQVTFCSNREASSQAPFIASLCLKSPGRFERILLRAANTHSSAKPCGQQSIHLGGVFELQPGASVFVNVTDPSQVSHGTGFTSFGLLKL
Also on record: method as in PMID 29024591. Particulars: 95% CI of 235–401; read-out: CD40–CD154 IC50 (previous assessment); cited from earlier work.

Series [2] deals with HEK Blue cells. As to the kind of experiment: MTS cytotoxicity assay in HEK Blue cells. The series is classed as cell-based. Particulars: LC50 (MTS) / NF-κB IC50 in sensor cells. The source says: (§1) As further confirmation of the inhibitory activity of our compounds, a cell-based assay was used with sensor cells (HEK Blue CD40) containing a secreted embryonic alkaline phosphatase (SEAP) reporter gene under the control of a promoter fused to a NF-κB binding site and transfected with CD40. […] For all tested compounds, the corresponding IC50 values are higher than those determined in the cell-free binding inhibition assay (Table 1) representing a loss of activity which is likely due to non-specific binding on account of the presence of proteins and cells in the assay, as well as hydrophobicity-related problems. Cytotoxicities were also evaluated in these same cells and at the same concentrations using a standard MTS assay to ensure that effects are present at non-toxic concentration levels.
(§2) For the MTS assay, HEK Blue cells were cultured and prepared in the same manner as in the CD40 sensor assay. Then cells were added to a 96-well microtiter plate at a density of 50,000 cells/well in the absence or presence of various concentrations of compounds diluted in the same media, without the addition of CD154. The plate was incubated at 37 °C for 24 h. 20 µL per well of MTS, 3-(4,5-dimethylthiazol-2-yl)-5-(3-carboxymethoxyphenyl)-2-(4-sulfophenyl)-2H-tetrazolium, (Promega, Madison, WI, USA) was added to the culture after treatments, and cells were incubated at 37 °C for 4 h. Formazan levels were measured using a plate reader at 490 nm.
(§3) All binding inhibition and cell assays were tested in duplicate or triplicate per plates, and assays were performed as at least three independent experiments. As before, binding and cytotoxicity data were converted to percent inhibition and fitted with standard log inhibitor vs. normalized response models using nonlinear regression in GraphPad Prism (GraphPad, La Jolla, CA, USA) to establish half-maximal (median) inhibitory concentration (IC50) or median lethal concentration (LC50) values. Cell assay data were fitted with a similar model that also allowed for a variable slope using the log inhibitor vs. normalized response (variable slope) model from Prism with a Hill slope (n) shared across all compounds. Cell assays and draining lymph node data were analyzed by one-way repeated-measures analysis of variance (ANOVA) followed by Dunnett’s multiple comparison test as a post hoc test for individual differences using GraphPad Prism and a significance level of p < 0.05 for all comparisons.
On the technique in general: Tetrazolium dyes change colour on reduction, which living cells bring about.

Series [3] is described as follows: MTS cytotoxicity assay in HEK Blue cells. The format is cell-based. Particulars: human, HEK Blue CD40 sensor cells; HEK Blue cells, 24 h; read-out: LC50 (cytotoxicity, MTS).
From the text: as §1, §2, §3

Turning to `O=C(Nc1ccc(-c2ccc(C(=O)Nc3cccc4cccc(S(=O)(=O)O)c34)cc2)cc1)c1ccc([N+](=O)[O-])cc1` [Compound 6, 8-(4′-(4-Nitrobenzamido)biphenyl-4-ylcarboxamido)naphthalene-1-sulfonic acid], the pIC50 in series [1] was 6.51.

For the compound `O=C(Nc1ccc(-c2ccc(C(=O)Nc3cccc4cccc(S(=O)(=O)O)c34)cc2)nc1)c1ccc([N+](=O)[O-])cc1` [Compound 18, 8-(4-(5-(4-Nitrobenzamido)pyridin-2-yl)benzamido)naphthalene-1-sulfonic acid], the “therapeutic index, TI = LC50/IC50” value in series [2] is 15. The CC50 at 24 h in series [3] was 131 µM.

One may read the pIC50 as the IC50 on a negative log10 scale, so that one unit is a factor of ten.
